Source: US7345065B2, “Methods and compositions for alleviating pain” (Allergan, Inc., priority 2002, dated 2008)

Experiments:
rat α-2B (RNG gene) = biological target: T1, rat α-2B (RNG gene) (Rattus norvegicus, UniProt P19328); assay: RSAT assay, α-2B receptor; type: cell-based
T1 construct: expressed in transfected cells; host or cells: NIH-3T3
T1 sequence (P19328 1-453): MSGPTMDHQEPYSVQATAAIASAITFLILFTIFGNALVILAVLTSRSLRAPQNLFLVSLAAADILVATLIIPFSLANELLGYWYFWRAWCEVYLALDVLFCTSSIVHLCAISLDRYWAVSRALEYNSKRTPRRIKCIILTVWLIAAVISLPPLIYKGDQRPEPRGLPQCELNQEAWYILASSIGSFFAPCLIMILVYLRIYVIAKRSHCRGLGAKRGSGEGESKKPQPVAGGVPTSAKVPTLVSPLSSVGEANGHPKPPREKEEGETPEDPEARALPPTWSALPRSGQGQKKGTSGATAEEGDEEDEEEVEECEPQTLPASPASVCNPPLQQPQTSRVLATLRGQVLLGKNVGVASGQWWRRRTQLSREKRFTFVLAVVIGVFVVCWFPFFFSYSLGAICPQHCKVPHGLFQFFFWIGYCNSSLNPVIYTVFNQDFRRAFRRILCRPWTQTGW
Description: Agonist and antagonist activity, including selectivity and specificity, can be characterized using any of a variety of routine assays, including, without limitation, Receptor Selection and Amplification Technology (RSAT) assays (Messier et al., Pharmacol. Toxicol. 76:308-11 (1995); Conklin et al., Nature 363:274-6 (1993)); cyclic AMP assays (Shimizu et al., J. Neurochem. 16:1609-1619 (1969)); and cytosensor microphysiometry assays (Neve et al., J. Biol. Chem. 267:25748-25753 (1992)). Such assays generally are performed using cells that naturally express only a single α-adrenergic receptor subtype, or using transfected cells expressing a single recombinant α-adrenergic receptor subtype. The adrenergic receptor can be a human receptor or homolog thereof having a similar pharmacology. As disclosed herein, RSAT assays were performed using cells transiently transfected with human α-2A (c10 gene); rat α-2B (RNG gene); human α-2C (c4 gene); bovine α-1A; hamster α-1B; and rat α-1D.
The RSAT assay measures receptor-mediated loss of contact inhibition resulting in selective proliferation of receptor-containing cells in a mixed population of confluent cells. The increase in cell number is assessed with an appropriate detectable marker gene such as β-galactosidase, if desired, in a high throughput or ultra high throughput assay format. Receptors that activate the G protein, Gq, elicit the proliferative response. α-adrenergic receptors, which normally couple to Gi, activate the RSAT response when coexpressed with a hybrid Gq protein containing a Gi receptor recognition domain, designated Gq/i5.
As an example, an RSAT assay can be performed essentially as follows. NIH-3T3 cells are plated at a density of 2×10^6 cells in 15 cm dishes and maintained in Dulbecco's modified Eagle's medium supplemented with 10% calf serum. One day later, cells are cotransfected by calcium phosphate precipitation with mammalian expression plasmids encoding p-SV-β-galactosidase (5-10 μg), receptor (1-2 μg) and G protein (1-2 μg). Carrier DNA, for example 40 μg salmon sperm DNA, also can be included to increase transfection efficiency. Fresh media is added on the following day; one to two days later, cells are harvested and frozen in 50 assay aliquots. Transfected cells are thawed, and 100 μl of cells added to 100 μl aliquots of compound to be tested, with various concentrations assayed in triplicate, for example, in 96-well plates. Incubation continues for 72 to 96 hours at 37°. After washing with phosphate-buffered saline, β-galactosidase activity is determined by adding 200 μl of chromogenic substrate (3.5 mM O-nitrophenyl-β-D-galactopyranoside/0.5% NP-40 in phosphate buffered saline), incubating overnight at 30°, and measuring optical density at 420 nm. The absorbancy is a measure of enzyme activity, which depends on cell number and reflects receptor-mediated cell proliferation. The EC50 and maximal effect (efficacy) of each drug at each receptor is determined.

α-2A = biological target: T2, α-2A (Homo sapiens, UniProt P08913); assay: Ki at α-2A; type: binding
T2 sequence (P08913 1-465): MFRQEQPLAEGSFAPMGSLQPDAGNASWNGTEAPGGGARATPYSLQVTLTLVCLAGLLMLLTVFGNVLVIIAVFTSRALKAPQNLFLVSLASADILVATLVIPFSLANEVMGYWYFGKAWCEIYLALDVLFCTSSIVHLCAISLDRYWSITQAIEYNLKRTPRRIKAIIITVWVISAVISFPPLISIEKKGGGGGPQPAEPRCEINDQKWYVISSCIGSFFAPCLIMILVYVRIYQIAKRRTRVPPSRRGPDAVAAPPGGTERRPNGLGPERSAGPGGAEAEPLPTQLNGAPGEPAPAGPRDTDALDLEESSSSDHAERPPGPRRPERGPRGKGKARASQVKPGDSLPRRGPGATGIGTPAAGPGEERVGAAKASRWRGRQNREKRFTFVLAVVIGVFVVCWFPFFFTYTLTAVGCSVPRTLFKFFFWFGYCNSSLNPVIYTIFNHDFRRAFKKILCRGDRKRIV

## c1nc(CC2CCc3sccc3C2)c[nH]1 (centres unmarked) [Compound 13]
Rat α-2B (RNG gene)
  efficacy at α-2B relative to brimonidine: about 40%
α-2A
  Ki: ~0.08 nM
